Results from paper PMC12188386, “Selective CBP/EP300 Bromodomain Inhibitors: Novel Epigenetic Tools to Counter TNF-α-Driven Inflammation” (JACS Au, 2025).
≈ marks a conversion by molar mass, not a printed value. Read-outs that look alike come from different tables or passages of the source.

Experiments:
[1] = kinetic solubility; type: physicochemical; settings: PBS buffer, aqueous buffer, kinetic from dmso stock, PBS pH 7.4, 37°C, ± st. dev. between technical replicates, read-out: Kin. Sol.
Description: Starting from an initial concentration of 100, 50 or 20 µM, a 2-fold serial dilution of the compound (10 mM stock in DMSO) was prepared in a mixture of ACN/Buffer (PBS, pH = 7.4) 2:8, with 1% DMSO. 350 µL was transferred to a 96-Well Plate (Greiner, UV-star) then UV absorption (240-400 nm, 10 nm steps) was measured. The absorption was blank-corrected and plotted against concentration. The wavelength (λ) providing the best fitting straight line […]
was used as the calibration curve. To obtain saturated solutions of the compounds of interest, in duplicates 4.4 µL of a 10 or 5 mM stock in DMSO was added to 436 µL Buffer (PBS, pH = 7.4), to give a final concentration of 100 or 50 µM. Samples were incubated on a shaker (500 rpm) at 37°C for 90 minutes and then filtered (Millex-GV 13 mm, 0.22 µm). 304 µL of the filtrate was mixed with 76 µL of acetonitrile on a dilution plate, from which 350 µL was transferred to a UV-plate and UV-absorption was read using a SpectraMax M5 (Molecular devices). The absorbance was blank-corrected and compared to the calibration curve to […]
solubility. The wavelengths used for the calibration curve are available in Table S4.
Based on the known density of 12.5 % CAPTISOL® solution (d = 1.05755 g/mL at 25 °C), the precise weight of the resulting solution and so the required amount of water by weight was calculated. The water was added portion wise with agitation, vortexing and sonication cycles in between additions. The saturated solutions were then filtered (Millex-GV 13 mm, 0.22 µm). In duplicates, aliquots of the filtrates were taken and diluted with blank 12.5 % CAPTISOL® water solution in either a 1:14 (higher sol. compounds) or 1:7 (lower sol. compounds) ratio, 350 µL was transferred to a 96-Well Plate (Greiner, UV-star) then UV absorption (240-400 nm, 10 nm steps) was measured using a SpectraMax M5 (Molecular devices). The absorption was blank-corrected, compared to the calibration curve obtained during the solubility measurement method above and finally corrected for the dilution ratio to obtain the compound concentration in the saturated 12.5 % CAPTISOL® solution. The calculated concentrations are available in Table S4.
BROMOscan™ assays (provided by Eurofins DiscoverX, US)1,2 […]
coli host derived from the BL21 strain. E. coli were grown to log-phase and infected with T7 phage from a frozen stock (multiplicity of infection = 0.4) and incubated with shaking at 32°C until lysis (90-150 minutes). The lysates were centrifuged (5,000 x g) and filtered (0.2µm) to remove cell debris. Streptavidin-coated magnetic beads were treated with biotinylated small molecule or acetylated peptide ligands for 30 minutes at room temperature to generate affinity resins for bromodomain assays. The liganded beads were blocked with excess biotin and washed with blocking buffer (SeaBlock (Pierce), 1 % BSA, 0.05 % Tween 20, 1 mM DTT) to remove unbound ligand and to reduce non specific phage binding. Binding reactions were assembled by combining bromodomains, liganded affinity beads, and test compounds (see […]
Sodium azide, 7.4 mM DTT). All reactions were performed in polypropylene 384-well plates in a final volume of 0.02 mL. The assay plates were incubated at room temperature with […]
20). The beads were then resuspended in elution buffer (1x PBS, 0.05% Tween 20, 2 µM non-

[2] = system: CBP-BRD; settings: TR-FRET, read-out: Affinity to CBP-BRD, IC50, cited from earlier work
[3] = system: BRD4(1)-BRD; settings: cited from earlier work
[4] = molecular target: T1, CBP-BRD (ePL-CBP-BRD in HEK293T cells) (Homo sapiens, UniProt Q92793); assay: CBP-BRD InCELL Pulse cellular target engagement; type: cell-based; settings: 1 h compound treatment of HEK293T cells transiently transfected with ePL-CBP-BRD
T1 construct: (residues 1083-1197) was cloned into the pICP-ePL-C vector; expressed in transfected cells; host or cells: HEK293T, transient transfection (vector pICP-ePL-C, DiscoverX 94-4007S)
T1 sequence (Q92793 1083-1197): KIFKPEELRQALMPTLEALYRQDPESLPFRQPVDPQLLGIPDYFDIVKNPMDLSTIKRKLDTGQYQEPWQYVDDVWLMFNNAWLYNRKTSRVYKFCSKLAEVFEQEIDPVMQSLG
Description: The CBP-BRD (residues 1083-1197) was cloned into the pICP-ePL-C vector (DiscoverX, 94-4007S) between the EcoRI and XhoI restriction sites using the hexahistidine-CREBBP plasmid as a template. 5x10^5 HEK293T cells were plated on a 6 well plate the day prior to transfection with 1.5 μg ePL-CBP-BRD plasmid using 5 μl FugeneHD (Promega E2311) in 500 μl optiMEM® (Gibco, 31985062) . Proteins were allowed to express for 20 h before cells were trypsinized, washed and resuspended in low -serum medium (DMEM with 5 % FBS). Compounds were serially diluted in DMSO at 100x, pre-diluted to 5x in complete medium (DMEM with 10 % FBS and 1 % P/S), then added to a suspension of 5x10^3 cells, giving a final DMSO concentration of 1 %. Treated cells were incubated for 1 h at 37 °C in an incubator, followed by a heat shock for 3 min at 45 °C and recovery for 3 min at 22 °C using a thermocycler with a ramp rate of 1 °C/s (SimpliAmp, Thermo Fisher). Stab ilized ePL tag was quantified using the InCELL detecti n Kit isc verX as per the manufacturer’s pr t c usin the -10 working detection solution and a 2 h incubation before reading luminescence with a SpectraMax M5 plate reader (Molecular devices). […]

[5] = system: myc expression in LP1 cells; assay: myc mRNA expression by RT-qPCR; type: cell-based; settings: 4 h treatment of LP1 cells with 1 μM compound
Description: For myc expression, 1x10^6 LP1 cells were plated the day prior to a 4 h treatment with compounds at a final DMSO concentration of 0.1 %. […]
In all cases, total
(§1) RNA was extracted using the NucleoSpin® RNA kit (Machery -Nagel) and used for cDNA synthesis with the High -Capacity cDNA Reverse Transcription kit (Applied Biosystems). RT-qPCR reactions were performed using PowerSYBR™ green PCR Master Mix (Applied Biosystems) and a LightCycler® 480 (Roche). cDNA was denatured for 10 min at 95 °C followed by 40 cycles of 15 s at 95 °C and 1 min at 60 °C. Cp values were determined as the maximum of the second derivative and target gene expression was compared to that of hprt from the same sample using the 2-ΔCp method. Gene expression was then normalized to the average of the control samples from the same day, or all biological replicates. […]

[6] = system: TNF-α-induced cytokine expression in THP-1 cells; assay: cytokine mRNA expression by RT-qPCR; type: cell-based, human; settings: 1 h co-treatment of THP-1 cells with 10 ng/mL TNF-α and 1 μM compound
Description: For cytokine expression determination, 5x10^5 THP-1 cells were plated on 12 well plates the day prior to treatment with 10 ng/mL recombinant human TNF -α (aa 77-233) protein (R&D systems, 10291 -TA) and compounds at a final concentration of 0.1 % DMSO. In all cases, total
as §1

[7] = system: TNF-α-induced IL-8 secretion from THP-1 cells; assay: cytokine protein measurement (LEGENDPlex); type: cell-based, human; settings: 10 ng/mL TNF-α, 1 μM compound
Description: For cytokine expression determination, 5x10^5 THP-1 cells were plated on 12 well plates the day prior to treatment with 10 ng/mL recombinant human TNF -α (aa 77-233) protein (R&D systems, 10291 -TA) and compounds at a final concentration of 0.1 % DMSO. In all cases, total […]
Cytokine protein measurements
THP-1 cells were plated and treated as for the quantitative RT -PCR, then the cell culture medium was harvested by pelleting the cells (300g, 3min) and taking the supernatant .
Cytokine protein concentrations were determined using the LEGENDPlexTM Human Inflammation Panel 1 (BioLegend) assay with 25 µL of culture medium following the manufacturer’s instructi ns. amp es were ana zed f w c t metr n an rtessa Biosciences), and data was analyzed using LEGENDPlex software (BioLegend).

[8] = system: MRC5 cells; assay: viability assay (resazurin); type: cell-based; settings: three-day treatment, concentration resulting in 70 % viability
Description: MRC5 (2x10^3 cells/well) or THP-1 (8x10^3 cells/well) cells were plated onto 96 well plates and treated with compounds at a final DMSO concentration of 0.5 % (MRC5) or 0.1 % (THP-1).
After 3 days of treatment, resazurin (Acros Organics) was added at a final concentration of 86 μ and incu ated for 2h15 (MRC5) or 3 h (THP-1). Fluorescence (ex. 560 nm, em. 590 nm) was read using a SpectraMax M5 (Molecular devices). GI30 values were calculated as the compound concentration resulting in 70 % viability compared to DMSO treated controls using a nonlinear regression fit using GraphPad Prism with the following equation: (Y=Bottom + (100-Bottom)/(1+(IC50/X)^HillSlope)). […]
After 1.5 h, mice were injected with 10 µL of the prepared CAPTISOL […]
foodpad and also intraperitoneally (for i.p. injection, the 10 µL of CAPTISOL solution was diluted to a final volume of 100 µL using PBS). Organs were collected 5 h after TNF-α […]
LEGENDPlexTM assays (Mouse Pro-inflammatory Chemokine Panel and Mouse Inflammation Panel; Biolegend) were performed to monitor cytokine/chemokine expression. Briefly, popliteal LNs were collected and carefully disrupted in […] ice-cold phosphate buffer, minimizing cell rupture. The suspension was centrifuged at 1,500 rpm for 5 min, and the […]

Cc1cc2c(NC(=O)c3cc(NC(=O)C4COC4)cc(-c4ccn(C)n4)c3)cccc2nn1 [Compound 7] showed a solubility kinetic at 90 min [1] of 82.6 ± 0.7 µM (≈ 36.5 µg/mL).
In the case of C[C@@H]1CC(=O)Nc2cccc(-c3ccc4c(c3)c(-c3cnn(C)c3)nn4C)c2N1 [CPI-637], the IC50 ([2]; ref Taylor et al., 2016) is listed as 30 nM and the “Sel. over BRD4(1)-BRD” value ([3]; ref Taylor et al., 2016) is listed as 367 fold.
For Cc1cc2c(NC(=O)c3cc(NC(=O)[C@@H]4CCCO4)cc(-c4ccn(C)n4)c3)cccc2nn1 [Compound 6], the solubility kinetic at 90 min [1] was 71 ± 0.7 µM (≈ 32.4 µg/mL), the “cellular binding to CBP-BRD (InCELL Pulse)” value [4] was “able to engage the target very similarly” and the “myc mRNA expression” value [5] was “significantly decreased the expression level of myc”.
Cc1cc2c(NC(=O)c3cc(NC(=O)c4ccco4)cc(-c4c(C)n[nH]c4C)c3)cccc2nn1 [Compound 4] gave a solubility kinetic at 90 min [1] of 6 ± 1 µM (≈ 2.8 µg/mL).
Molecule Cc1cc2c(NC(=O)c3cc(NC(=O)c4ccc(CN5CCN(C)CC5)o4)cc(-c4ccn(C)n4)c3)cccc2nn1 [Compound 8] has a solubility kinetic at 90 min [1] of 69.9 ± 2.3 µM (≈ 39.5 µg/mL).
For COc1ccc(CCc2nc3cc(-c4c(C)noc4C)ccc3n2C[C@H](C)N2CCOCC2)cc1Cl [SGC-CBP30], the “Sel. over BRD4(1)-BRD” value ([3]; ref Hay et al., 2014) is given as 40 fold.
In the case of CNC(=O)N1CCc2c(c(N3CCCc4cc(-c5cnn(C)c5)c(C(F)F)cc43)nn2C2CCOCC2)C1 [GNE-781], the IC50 ([2]; ref Romero et al., 2017) is given as 0.9 nM and the “Sel. over BRD4(1)-BRD” value ([3]; ref Romero et al., 2017) is given as 5425 fold.
For COc1ccc(CCc2nc3cc(-c4c(C)noc4C)ccn3c2NC2CCCCC2)cc1Cl [UMB298], the “Sel. over BRD4(1)-BRD” value ([3]; ref Muthengi et al., 2021) is given as 72 fold.
For Cc1cc2c(NC(=O)c3cc(NC(=O)c4ccco4)cc(-c4nn(C)cc4Cl)c3)cccc2nn1 [Compound 3], the solubility kinetic at 90 min [1] was 9.5 ± 0.4 µM (≈ 4.63 µg/mL).
With CNC(=O)Nc1ccc2c(c1)CC[C@@]21OC(=O)N(CC(=O)N(Cc2ccc(F)cc2)[C@@H](C)C(F)(F)F)C1=O [A485] the “TNF-α-induced expression of il1β, il8, mcp-1 and tnf-α (mRNA)” value [6] was “significantly reduced the TNF-α-induced expression of all four tested genes”, the “TNF-α-induced IL-8 protein secretion” value [7] was “significantly reducing its TNF-α-induced secretion” and the GI30 [8] was 1200 nM.
